Tests used:
Conditions in all cases: incubation time: 72 h
[1] = test system: CAL-51; assay: normalised response (% of control), CellTiter-Glo; higher = more viable cells (100 = DMSO, 0 = benzethonium chloride kill control)
How it was run: (§1)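 The table gives the normalised signal for a single concentration in each entry. Breast cancer cell lines were seeded (20 µl suspension) into 384-well plates holding compound at 5 concentrations in 10-fold steps over a compound-specific 10,000-fold range and incubated 72 h, then read for CellTox Green fluorescence (485/520 nm) and CellTiter-Glo luminescence. Normalisation on each plate used 0.1 % DMSO (100) and a positive kill control (0).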

[2] = test system: DU-4475; assay: as above
How it was run: as §1

[3] = test system: MDA-MB-453; assay: as above
How it was run: as §1

[4] = test system: CAL-120; assay: as above
How it was run: as §1

[5] = test system: Hs578T; assay: as above
How it was run: as §1

[6] = test system: MDA-MB-468; assay: as above
How it was run: as §1

[7] = test system: BT-474; assay: as above
How it was run: as §1

[8] = test system: BT-549; assay: as above
How it was run: as §1

[9] = test system: MCF-10A; assay: as above
How it was run: as §1

[10] = test system: HCC1599; assay: as above
How it was run: as §1

[11] = test system: HCC1937; assay: as above
How it was run: as §1

[12] = test system: HCC1143; assay: as above
How it was run: as §1

[13] = test system: HDQ-P1; assay: as above
How it was run: as §1

[14] = test system: MDA-MB-436; assay: as above
How it was run: as §1

[15] = test system: MDA-MB-231; assay: as above
How it was run: as §1

[16] = test system: SK-BR-3; assay: as above
How it was run: as §1

[17] = test system: CAL-85-1; assay: as above
How it was run: as §1

[18] = test system: MFM-223; assay: as above
How it was run: as §1

[19] = test system: CAL-148; assay: as above
How it was run: as §1

[20] = test system: CAL-51; assay: normalised response (% of control), CellTox Green; higher = less cell death (100 = DMSO, 0 = benzethonium chloride kill control)
How it was run: as §1

[21] = test system: DU-4475; assay: as above
How it was run: as §1

[22] = test system: MDA-MB-453; assay: as above
How it was run: as §1

[23] = test system: CAL-120; assay: as above
How it was run: as §1

[24] = test system: Hs578T; assay: as above
How it was run: as §1

[25] = test system: MDA-MB-468; assay: as above
How it was run: as §1

[26] = test system: BT-474; assay: as above
How it was run: as §1

[27] = test system: BT-549; assay: as above
How it was run: as §1

[28] = test system: MCF-10A; assay: as above
How it was run: as §1

[29] = test system: HCC1599; assay: as above
How it was run: as §1

[30] = test system: HCC1937; assay: as above
How it was run: as §1

[31] = test system: HCC1143; assay: as above
How it was run: as §1

[32] = test system: HDQ-P1; assay: as above
How it was run: as §1

[33] = test system: MDA-MB-436; assay: as above
How it was run: as §1

[34] = test system: MDA-MB-231; assay: as above
How it was run: as §1

[35] = test system: CAL-85-1; assay: as above
How it was run: as §1

[36] = test system: MFM-223; assay: as above
How it was run: as §1

[37] = test system: CAL-148; assay: as above
How it was run: as §1

| SMILES | normalised response [1] | normalised response [2] | normalised response [3] | normalised response [4] | normalised response [5] | normalised response [6] | normalised response [7] | normalised response [8] | normalised response [9] | normalised response [10] | normalised response [11] | normalised response [12] | normalised response [13] | normalised response [14] | normalised response [15] | normalised response [16] | normalised response [17] | normalised response [18] | normalised response [19] | normalised response [20] | normalised response [21] | normalised response [22] | normalised response [23] | normalised response [24] | normalised response [25] | normalised response [26] | normalised response [27] | normalised response [28] | normalised response [29] | normalised response [30] | normalised response [31] | normalised response [32] | normalised response [33] | normalised response [34] | normalised response [35] | normalised response [36] | normalised response [37] |
| --- | --- | --- | --- | --- | --- | --- | --- | --- | --- | --- | --- | --- | --- | --- | --- | --- | --- | --- | --- | --- | --- | --- | --- | --- | --- | --- | --- | --- | --- | --- | --- | --- | --- | --- | --- | --- | --- |
| N#Cc1ccc(C(c2ccc(C#N)cc2)n2cncn2)cc1 [Letrozole] (10000 nM) | 128% | 98.8% | 96.8% | 98.8% | 97.7% | 97% | 91.7% | 96.3% | 106% | 85.2% | 100% | 97.7% | 103% | 102% | 91.5% | 101% | 97.8% | 99.8% | 101% | 116% | 101% | 98.1% | 101% | 66.7% | 70.7% | 102% | 102% | 103% | 101% | 94.5% | 127% | 107% | 93.9% | 105% | 94.2% | 100% | 97.9% |
| C[C@H]1C[C@@H]2[C@H]([C@@H](O)C[C@@]3(C)[C@H]2CC[C@]3(O)C(=O)CO)[C@@]2(C)C=CC(=O)C=C12 [Methylprednisolone] (10000 nM) | 130% | 104% | 96.7% | 77.7% | 108% | 106% | 151% | 98.4% | 101% | 103% | 97.5% | 104% | 89.9% | 102% | 146% | 94.5% | 112% | 99.6% | 112% | 119% | 103% | 101% | 102% | 126% | 151% | 99.9% | 111% | 99.1% | 86.3% | 94.8% | 121% | 111% | 91.9% | 154% | 73.1% | 93.2% | 93.7% |
| C=CCc1cccc(/C=N/NC(=O)CN2CCN(Cc3ccccc3)CC2)c1O [PAC-1] (10000 nM) | 5.5% | 9.69% | 26.4% | 34.8% | 73.5% | 11.6% | 38.9% | 34% | 77.7% | 33.4% | 27.7% | 41.4% | 61.4% | 17.8% | 45% | 14.9% | 21% | 43.4% | 26.6% | 68.6% | 86.9% | 93.7% | 70.5% | 116% | 65.4% | 74.2% | 2.94% | 99.2% | 91% | 96% | 101% | 113% | 103% | 86.4% | 63.3% | 103% | 61.4% |
| CC[C@H](C)C(=O)O[C@H]1C[C@H](O)C=C2C=C[C@H](C)[C@H](CC[C@@H](O)C[C@@H](O)CC(=O)O)[C@H]21 [Pravastatin] (10000 nM) | 36% | 41.6% | 55.3% | 58% | 70.3% | 34.5% | 50.8% | 56.4% | 67.1% | 29.5% | 37% | 42.3% | 65.7% | 21.6% | 61% | 21.6% | 44.8% | 49.5% | 39.7% | 16.5% | 93.2% | 94.4% | 101% | 115% | 21.1% | 99.4% | 90.3% | 26.1% | 89.1% | 96.1% | 101% | 97.2% | -63.1% | 54.3% | 106% | 63.1% | 91.6% |
| Cc1cnc(NC(=O)Nc2cc(Br)c(C)cc2OC[C@@H]2CNCCO2)cn1 [Rabusertib] (1000 nM) | 110% | 106% | 77.2% | 102% | 71.3% | 102% | 100% | 91.5% | 112% | 29.4% | 80.9% | 99.5% | 100% | 116% | 92.1% | 48.6% | 87.8% | 98.2% | 112% | 111% | 102% | 104% | 106% | 103% | 137% | 103% | 109% | 109% | 95.7% | 114% | 129% | 110% | 104% | 100% | 59.3% | 82.7% | 58.9% |
| COc1cc([C@@H]2c3cc4c(cc3[C@@H](O[C@@H]3O[C@@H]5CO[C@@H](c6cccs6)O[C@H]5[C@H](O)[C@H]3O)[C@H]3COC(=O)[C@H]23)OCO4)cc(OC)c1O [Teniposide] (10000 nM) | 14% | 4.51% | 64% | 23.6% | 6.65% | 7.53% | 9.52% | 5.21% | 51.8% | 5.92% | 22.8% | 10.8% | 34.3% | 17.1% | 15.6% | 6.25% | 8.03% | 12.9% | 4.81% | 13.6% | 61.9% | 105% | 22.2% | 45.6% | 29.8% | 59.4% | 59% | 59.6% | 67% | 51% | 74.5% | -41.5% | 80.5% | -78.1% | -1.62% | 48.8% | 38.7% |
| COc1cc2nccc(Oc3ccc(NC(=O)Nc4cc(C)on4)c(Cl)c3)c2cc1OC [Tivozanib] (10000 nM) | 70.7% | 91.9% | 64.3% | 50.6% | 63.8% | 52.2% | 50.3% | 64.2% | 42.7% | 77.2% | 61.6% | 86.2% | 62.2% | 79.6% | 46% | 70.8% | 76.6% | 34.3% | 77.6% | 25% | 98% | 104% | 89.6% | 21.6% | 134% | 85.2% | 126% | 91.7% | 102% | 111% | 110% | 93.9% | 104% | 77.7% | 100% | 93.8% | 78.1% |
| CC(=O)Nc1cccc(-n2c(=O)n(C3CC3)c(=O)c3c(Nc4ccc(I)cc4F)n(C)c(=O)c(C)c32)c1 [Trametinib] (250 nM) | 69% | 0.48% | 98% | 62.2% | 64.6% | 82.5% | 60.1% | 89% | 32.3% | 88.3% | 66.5% | 81.2% | 57.4% | 79.2% | 61.9% | 96.1% | 46.2% | 60.2% | 84.3% | 86.8% | 73.2% | 105% | 77.3% | 118% | 96% | 101% | 119% | 60.7% | 110% | 110% | 120% | 82.9% | 113% | 63.1% | 31.4% | 101% | 86% |
